For 16 compounds, TGI and GI50 results are on record in PubChem BioAssay (NCI).

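Method: 48-hour compound exposure of cells in 96-well plates, five concentrations, linear interpolation of endpoints. GI50 is the concentration that inhibits growth by half. TGI denotes the concentration required for complete inhibition of growth.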

Among the test systems are ACHN renal; HOP-62 NSCLC; IGROV1 ovarian; OVCAR-5 ovarian; SF-295 CNS; SN12C renal; UO-31 renal; DU-145 prostate; MCF7 breast; NCI-H226 lung.
Assay in all cases: NCI anticancer screen, dose series, 48 h

Regarding `O=C(CN1CCCCC1)N1CCc2c([nH]c3ccccc23)C1c1cccnc1` (stereo not given), the TGI with ACHN renal, with HOP-62 NSCLC, in the test with IGROV1 ovarian, in the test with OVCAR-5 ovarian, with SF-295 CNS and with SN12C renal was > 100 µM each time. In the test with UO-31 renal, the TGI was > 100 µM.

Regarding `N#CC1Nc2ccccc2[C@@H](O)C1O` (stereo not given in full), the TGI with ACHN renal, in the test with DU-145 prostate, with HOP-62 NSCLC, with IGROV1 ovarian, in the test on MCF7 breast and in the test on OVCAR-5 ovarian was > 100 µM each time. The TGI in the test on SF-295 CNS and in the test on SN12C renal was > 100 µM each time.

`Cc1cn2c(/C=C3/C(=O)Nc4ccccc43)c(-c3ccc(Cl)cc3)nc2s1`: the GI50 is 2.48 µM in the test with ACHN renal; 8.46 µM in the test with HOP-62 NSCLC; 10.2 µM in the test with IGROV1 ovarian; 6.9 µM in the test with MCF7 breast; 7.04 µM with NCI-H226 lung; 9.22 µM in the test with SF-295 CNS. For the same compound, the GI50 with UO-31 renal is 35.9 µM. Moreover, the TGI came to 8.52 µM with ACHN renal; 15.3 µM in the test on HOP-62 NSCLC; 19.9 µM with IGROV1 ovarian; 19.7 µM in the test with MCF7 breast; 21.3 µM in the test with NCI-H226 lung; 17.4 µM in the test on SF-295 CNS. The TGI with UO-31 renal is > 50 µM.

As for `CN=NN(C)C(=O)NC`, the TGI in the test with ACHN renal, with HOP-62 NSCLC, in the test with IGROV1 ovarian, in the test on OVCAR-5 ovarian, in the test with SF-295 CNS and in the test with SN12C renal was > 100 µM in each case. Besides, in the test on UO-31 renal, the TGI is > 100 µM.

For `CCOC(=O)C1N(S(=O)(=O)c2ccc(C)cc2)CCC12C(c1ccc(OC)cc1)NC1CCCCC12` (stereo not given), the TGI in the test with ACHN renal, with HOP-62 NSCLC, in the test on IGROV1 ovarian, in the test on NCI-H226 lung, with OVCAR-5 ovarian and in the test with SF-295 CNS was > 100 µM each time. Moreover, the TGI with SN12C renal and with UO-31 renal was > 100 µM each time.

With `CC(=O)OCC1OC([S-])C(OC(C)=O)C(OC(C)=O)C1OC(C)=O.CC[PH+](CC)CC.CC[PH+](CC)CC.[Au].[Au]` (stereo not given), the GI50 in the test with ACHN renal was 1.01 µM; in the test with HOP-62 NSCLC, 1.23 µM; with IGROV1 ovarian, 0.306 µM; in the test with NCI-H226 lung, 0.244 µM; in the test on OVCAR-5 ovarian, 1.59 µM; with SF-295 CNS it was 0.436 µM. For the same compound, the GI50 in the test on SN12C renal is 0.567 µM; in the test with UO-31 renal it was 1.6 µM. Further, the TGI in the test with ACHN renal was found to be 2.38 µM; in the test on HOP-62 NSCLC it was 2.56 µM; in the test with IGROV1 ovarian, 1.09 µM; in the test with NCI-H226 lung it was 1.7 µM; with OVCAR-5 ovarian it was 2.96 µM; with SF-295 CNS, 1.63 µM. For the same compound, the TGI with SN12C renal came out at 1.78 µM; in the test on UO-31 renal, 2.98 µM.

In the case of `COc1ccccc1NC(=O)C1=C(C)NC(C)=C(C(=O)Nc2ccccc2OC)C1c1ccc([N+](=O)[O-])cc1`, the TGI was > 100 µM in the test on ACHN renal; > 100 µM in the test on HOP-62 NSCLC; > 100 µM in the test with IGROV1 ovarian; > 100 µM with NCI-H226 lung; 90.8 µM with OVCAR-5 ovarian; 55.9 µM in the test on SF-295 CNS. In addition, in the test with SN12C renal, the TGI was > 100 µM.

Take `O=C(/C=C/c1ccccc1)/C=C/c1ccccc1`: the TGI in the test with ACHN renal was 38.2 µM; in the test with HOP-62 NSCLC, > 100 µM; with IGROV1 ovarian, 66.5 µM; in the test with NCI-H226 lung it was > 100 µM; in the test on OVCAR-5 ovarian, > 100 µM; in the test with SF-295 CNS it was > 100 µM. In addition, the TGI is 42.1 µM in the test with SN12C renal and > 100 µM in the test on UO-31 renal.

As to `O=C1CSC(Cc2nc3ccccc3[nH]2)=N1`, the TGI in the test on ACHN renal is 9.79 µM; with HOP-62 NSCLC it was 44.1 µM; in the test with IGROV1 ovarian it was > 58.7 µM; in the test with NCI-H226 lung, 28.3 µM; with OVCAR-5 ovarian it was 57.5 µM; in the test with SF-295 CNS it was 63.3 µM. In addition, the figures for the TGI with SN12C renal and with UO-31 renal were 44.8 µM and 35 µM, respectively.

`O/N=C\c1c(O)ccc2ccccc12`: the TGI is 70.1 µM in the test on ACHN renal; > 100 µM in the test on HOP-62 NSCLC; > 100 µM in the test on MCF7 breast; > 100 µM in the test with NCI-H226 lung; > 100 µM with OVCAR-5 ovarian; > 100 µM with SF-295 CNS. The TGI with SN12C renal was > 100 µM.

Consider `CC1=C(C(=O)Nc2c(C)cccc2C)C(c2ccccc2Cl)C(C(=O)Nc2c(C)cccc2C)=C(C)N1`, for which the TGI in the test with ACHN renal, with HOP-62 NSCLC, with IGROV1 ovarian, in the test on NCI-H226 lung, in the test on OVCAR-5 ovarian and in the test with SF-295 CNS was > 100 µM in each case. Besides, the TGI in the test with SN12C renal and with UO-31 renal was > 100 µM throughout.

As for `O=S(O)CCCCSSCc1ccccc1CSSCCCCS(=O)O`, the TGI was 74 µM in the test with ACHN renal; > 100 µM in the test with HOP-62 NSCLC; > 100 µM in the test with IGROV1 ovarian; > 100 µM in the test on OVCAR-5 ovarian; 49.8 µM in the test on SF-295 CNS; > 100 µM in the test with SN12C renal. The TGI with UO-31 renal turned out to be 74.4 µM.

In the case of `CC(C)(C)N1CC2(CCCCC2)C1=O`, the TGI in the test with ACHN renal, with HOP-62 NSCLC, in the test with IGROV1 ovarian, in the test with NCI-H226 lung, in the test on OVCAR-5 ovarian and in the test on SF-295 CNS was > 100 µM each time. Besides, the TGI in the test with SN12C renal and with UO-31 renal was > 100 µM each time.

In the case of `Cc1cc(C)n(CCNCCn2nc(C)cc2C)n1`, the TGI in the test on ACHN renal, in the test on HOP-62 NSCLC, with SF-295 CNS, in the test with SN12C renal and in the test on UO-31 renal was > 100 µM each time.

As to `CSC1(CC(=O)N(C)C)C(=O)Nc2ccccc21` (stereo not given), the TGI with ACHN renal, with DU-145 prostate, with HOP-62 NSCLC, in the test on IGROV1 ovarian, with MCF7 breast and in the test on NCI-H226 lung was > 100 µM in each case. The TGI in the test with OVCAR-5 ovarian, with SF-295 CNS and in the test with UO-31 renal was > 100 µM in each case.

On to `CCOC(=O)[C@H](CCCNC(=O)OC(C)(C)C)NCc1ccc(OC)c(OC)c1`, for which the TGI with ACHN renal, in the test on HOP-62 NSCLC, with IGROV1 ovarian, with NCI-H226 lung, in the test with OVCAR-5 ovarian and in the test on SF-295 CNS was > 100 µM each time. The TGI with SN12C renal and in the test on UO-31 renal was > 100 µM in each case.
